Each structure is given as a SMILES string. Structures can show the parent of a compound that is named as a salt.

In test [1] the target is T1, CYP11B2 (aldosterone) (Homo sapiens, UniProt P19099).
T1 construct: host or cells: NCI-H295R (human adrenocortical carcinoma)
T1 sequence (P19099 25-503): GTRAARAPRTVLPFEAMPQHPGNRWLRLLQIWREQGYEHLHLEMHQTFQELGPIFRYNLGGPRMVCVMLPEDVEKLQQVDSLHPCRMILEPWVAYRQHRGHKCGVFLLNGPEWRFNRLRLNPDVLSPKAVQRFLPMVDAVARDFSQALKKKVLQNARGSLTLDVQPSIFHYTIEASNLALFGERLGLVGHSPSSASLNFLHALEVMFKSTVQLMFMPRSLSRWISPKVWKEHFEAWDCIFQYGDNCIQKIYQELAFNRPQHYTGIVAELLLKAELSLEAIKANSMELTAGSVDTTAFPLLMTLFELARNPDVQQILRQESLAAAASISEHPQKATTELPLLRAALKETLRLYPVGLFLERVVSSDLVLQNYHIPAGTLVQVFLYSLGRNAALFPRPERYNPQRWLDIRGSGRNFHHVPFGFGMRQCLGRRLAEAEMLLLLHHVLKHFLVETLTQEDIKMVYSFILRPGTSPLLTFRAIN
The test is described as follows: Inhibition of aldosterone production in NCI-H295R cells (Ang II stimulated, SPA). The test is classed as cell-based. As to conditions: inhibitory activity on aldosterone production, read-out: Aldosterone (cell). The text has this: In particular, the aldosterone synthase inhibitory activities in vitro can be determined by the following assay.
Human adrenocortical carcinoma NCI-H295R cell line was obtained from American Type Culture Collection (Manassas, Va.). Insulin/transferrin/selenium (ITS)-A supplement (100×), DMEM/F-12, antibiotic/antimycotic (100×), and fetal bovine serum (FBS) were purchased from Invitrogen (Carlsbad, Calif.). Anti-mouse PVT scintillation proximity assay (SPA) beads and NBS 96-well plates were obtained from GE Health Sciences (Piscataway, N.J.) and Corning (Acton, Mass.), respectively. Solid black 96-well flat bottom plates were purchased from Costar (Corning, N.Y.). Aldosterone and angiotensin (Ang II) were purchased from Sigma (St. Louis, Mo.). D-[1,2,6,7-^3H(N)]aldosterone was acquired from PerkinElmer (Boston, Mass.). Nu-serum was a product of BD Biosciences (Franklin Lakes, N.J.).
For in vitro measurement of aldosterone activity, human adrenocortical carcinoma NCI-H295R cells are seeded in NBS 96-well plates at a density of 25,000 cells/well in 100 μl of a growth medium containing DMEM/F12 supplemented with 10% FCS, 2.5% Nu-serum, 1 μg ITS/ml, and 1× antibiotic/antimycotic. The medium is changed after culturing for 3 days at 37° C. under an atmosphere of 5% CO2/95% air. On the following day, cells are rinsed with 100 μl of phosphate-buffered saline (PBS) and incubated with 100 μl of treatment medium containing 1 μM Ang II and a compound at different concentrations in quadruplicate wells at 37° C. for 24 hr. At the end of incubation, 50 μl of medium is withdrawn from each well for measurement of aldosterone production by an SPA using mouse anti-aldosterone monoclonal antibodies.
Measurement of aldosterone activity can also be performed using a 96-well plate format. Each test sample is incubated with 0.02 μCi of D-[1,2,6,7-^3H(N)]aldosterone and 0.3 μg of anti-aldosterone antibody in PBS containing 0.1% Triton X-100, 0.1% bovine serum albumin, and 12% glycerol in a total volume of 200 μl at room temperature for 1 hr. Anti-mouse PVT SPA beads (50 μl) are then added to each well and incubated overnight at room temperature prior to counting in a Microbeta plate counter. The amount of aldosterone in each sample is calculated by comparing with a standard curve generated using known quantities of the hormone.
The inhibition activity of aldosterone production can also be expressed in percentage inhibition (% inhibition) at a given concentration (e.g. % inhibition at 1 μM), which is the aldosterone level when the cell is treated with the given concentration of a compound of this invention (e.g. concentration of 1 μM) versus the aldosterone excretion when cell is free of the compound of the invention: % inhibition aldosterone production=[(Y−X)/Y]×100 wherein X is the level of aldosterone when the cell is treated with a compound according to anyone of Formulae I to V, or a pharmaceutically acceptable salt thereof; and Y is the level of aldosterone when the cell is free of compound according to anyone of Formulae I to V.

In test [2] the target is T2, CYP11B1(cortisol) (Homo sapiens, UniProt P15538).
T2 construct: Thus, the NCI-H295R cells have CYP11 B1 (steroid 11 β-hydroxylase); host or cells: NCI-H295R (human adrenocortical carcinoma)
T2 sequence (P15538 25-503): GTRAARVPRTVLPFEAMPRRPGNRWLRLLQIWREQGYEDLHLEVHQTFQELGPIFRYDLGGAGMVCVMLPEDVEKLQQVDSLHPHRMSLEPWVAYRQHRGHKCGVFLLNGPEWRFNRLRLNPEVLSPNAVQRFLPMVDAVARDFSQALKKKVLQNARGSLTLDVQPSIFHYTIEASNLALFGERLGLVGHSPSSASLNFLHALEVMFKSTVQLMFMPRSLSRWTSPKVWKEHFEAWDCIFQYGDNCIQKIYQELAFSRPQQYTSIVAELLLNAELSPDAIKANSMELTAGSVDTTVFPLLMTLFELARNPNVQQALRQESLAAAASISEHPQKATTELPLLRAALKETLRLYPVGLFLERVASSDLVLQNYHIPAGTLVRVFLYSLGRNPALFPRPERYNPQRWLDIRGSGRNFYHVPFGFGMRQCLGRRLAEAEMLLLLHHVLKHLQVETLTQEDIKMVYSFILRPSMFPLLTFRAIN
The test is described as follows: Inhibition of cortisol production in NCI-H295R cells. The test is classed as cell-based. The note with it: inhibitory activity on cortisol production, read-out: Cortisol (cell). An excerpt: The in vitro inhibitory activities for CYP11B1 can be determined by the following assay.
The cell line NCI-H295R was originally isolated from an adrenocortical carcinoma and has been characterized in the literature through the stimulable secretion of steroid hormones and the presence of the enymes essential for steroidogenesis. Thus, the NCI-H295R cells have CYP11 B1 (steroid 11 β-hydroxylase). The cells show the physiological property of zonally undifferentiated human foetal adrenocortical cells which, however, have the capacity to produce the steroid hormones which are formed in the three, phenotypically distinguishable zones in the adult adrenal cortex.
The NCI-H295R cells (American Type Culture Collection, ATCC, Rockville, Md., USA) are grown in Dulbeoco's Modified Eagle'Ham F-12 Medium (DME/F12), which has been supplemented with Ulroser SF Serum (Soprachem, Cergy-Saint-Christophe, France), insulin, transferrin, selenite (I-T-S, Becton Dickinson Biosiences, Franklin lakes, NJ, USA) and antibiotics in 75 cm^2 cell culture vessels at 37° C. and in a 95% air-5% carbon dioxide atmosphere. The cells are subsequently transferred for colony formation into a 24-well incubation vessel. They are cultivated there in DME/F12 medium, which is now supplemented with 0.1% bovine serum instead of Ultroser SF for 24 hours. The experiment is initiated by cultivating the cells in DME/F12 medium which is supplemented with 0.1% bovine serum albumin and test compound, in the presence or absence of cell stimulants, for 72 hours. The test substance is added in a concentration range from 0.2 nanomolar to […]. Cell stimulants which can be used are angiotensin 11 ([…] or 100 nanomolar), potassium ions (16 millimolar), forskolin (10 micromolar) or a combination of two stimulants.
The excretion of aldosterone, cortisol, corticosterone and estradiol/estrone into the culture medium can be detected and quantified by commercially available, specific monoclonal antibodies in radioimmunoassays in accordance with the manufacturers instructions.
Inhibition of the release of certain steroids can be used as a measure of the respective enzyme inhibition by the added test compounds. The dose-dependent inhibition of enzymic activity by a compound is calculated by means of an inhibition plot which is characterized by an IC50.
The IC50 values for active test compounds are ascertained by a simple linear regression analysis in order to construct inhibition plots without data weighting. The inhibition plot is calculated by fitting a 4-parameter logistic function to the raw data points using the least squares method. The equation of the 4-parameter logistic function is calculated as follows: Y=(d−a)/((1+(x/c)b))+a, where: a=minimum data level, b=gradient, I […], d=maximum data level, x=inhibitor concentration.
The inhibition activity of CYP11B1 production can also be expressed in percentage inhibition (% inhibition) at a given concentration (e.g. % inhibition at 1 μM), which is the cortisol level when cell is treated with the given concentration of a compound of the invention (e.g. concentration of 1 μM) versus the cortisol excretion when cell is free of the compound of the invention. % inhibition cortisol production=[(Y′−X′)/Y′]×100 wherein X′ is the level of cortisol when the cell is treated with a compound according to anyone of Formulae I to V, or a pharmaceutically acceptable salt thereof; and Y′ is the level of cortisol when the cell is free of compound according to anyone of Formulae I to V.

As for `CC(O)c1c(F)cncc1-c1ccc2cc(C#N)ccc2c1` (single isomer, unassigned) [5 (enantiomer-1), 6-(5-fluoro-4-(1-hydroxyethyl)pyridin-3-yl)-2-naphthonitrile], the IC50 in test [1] worked out at 0.0415 µM; in test [2], 0.367 µM.

On to `CC(O)c1c(F)cncc1-c1cc2cc(Cl)c(F)cc2o1` (single isomer, unassigned) [Example 13d (enantiomer-2), 1-(3-(5-chloro-6-fluorobenzofuran-2-yl)-5-fluoropyridin-4-yl)ethanol], for which the IC50 in test [1] was found to be 0.0025 µM; in test [2] it was 1.07 µM. Regarding `COc1cc(-c2cnccc2C(C)O)ccc1C#N` (single isomer, unassigned) [Example 14 (enantiomer-1)], the IC50 turned out to be 0.132 µM in test [1] and 3.39 µM in test [2]. As for `CC(O)c1c(F)cncc1-c1ccc(C#N)c(Cl)c1` (single isomer, unassigned) [Example 16 (enantiomer-2)], the values for the IC50 in test [1] and in test [2] were 0.106 µM and 9.42 µM, respectively. For the compound `N#Cc1ccc(-c2cnccc2C2CCO2)cc1Cl` (single isomer, unassigned) [Example 28 (enantiomer-1), 2-chloro-4-(4-(oxetan-2-yl)pyridin-3-yl)benzonitrile], the IC50 in test [1] came to 0.0235 µM; in test [2], 0.783 µM.

With `CC1OC(=O)c2cncc(-c3ccc(C#N)c(Cl)c3)c21` (stereo not shown) [Example 24, 2-chloro-4-(1-methyl-3-oxo-1,3-dihydrofuro[3,4-c]pyridin-7-yl)benzonitrile], the IC50 in test [1] came out at 0.261 µM. As to `CC(C)OCC(O)c1c(F)cncc1-c1ccc(C#N)c(Cl)c1` (stereo not shown) [Example 30, 2-Chloro-4-[5-fluoro-4-(1-hydroxy-2-isopropoxy-ethyl)-pyridin-3-yl]-benzonitrile hydrochloride], the values for the IC50 in test [1] and in test [2] were 0.144 µM and 4.24 µM, respectively. Take `CC(C)(O)c1c(F)cncc1-c1ccc(C#N)c(Cl)c1` [Example 32, 2-Chloro-4-[5-fluoro-4-(1-hydroxy-1-methyl-ethyl)-pyridin-3-yl]-benzonitrile]: the IC50 was found to be 0.154 µM in test [1] and 15 µM in test [2]. For the compound `Cn1c(-c2cnccc2CO)nc2ccc(Cl)cc21` [Example 37, [3-(6-Chloro-1-methyl-1H-benzoimidazol-2-yl)-pyridin-4-yl]-methanol], the values for the IC50 in test [1] and in test [2] were 0.12 µM and 12.6 µM, respectively. As to `CC(O)c1ccncc1-c1ccc(Cl)c(Cl)c1` (stereo not shown) [Example 46, 1-[3-(3,4-Dichloro-phenyl)-pyridin-4-yl]ethanol], the IC50 stood at 0.0765 µM in test [1] and 0.672 µM in test [2].
